Reference: patent publication US4231936A, “Mitomycin C derivatives” (priority 1977, dated 1980)

Columns and labels:
[1] = system: Bacillus subtilis ATCC 10707; assay: Minimum inhibitory concentration (Table I); type: cell-based
Text: (§1) Comparative data similarly obtained by using mitomycin A, mitomycin C and 7-N-phenyl mitomycin C are also shown in this table

[2] = system: Klebsiella pneumoniae ATCC 10031; assay: Minimum inhibitory concentration (Table I); type: cell-based
Text: as §1

[3] = system: Shigella sonnei ATCC 9290; assay: Minimum inhibitory concentration (Table I); type: cell-based
Text: as §1

[4] = system: Staphylococcus aureus ATCC 6538P; assay: Minimum inhibitory concentration (Table I); type: cell-based
Text: as §1

[5] = background statement; cited from earlier work
[6] = background statement; cited from earlier work; remark: listed apart in the source
[7] = Acute toxicity determination, intraperitoneal; set-up: species or system Mice (dd-strain); details: mouse, in vivo, ip; dd mice, single i.p., 14 days, Behrens-Karber
Experimental: (§2) The following treatment was performed to make these compounds water-soluble for use in the experiments. A test compound was dissolved in ethanol (about 1000 times by weight) HCO-60, a commercially available surfactant was added in amounts of about 3 times by weight. The mixture was well stirred to dissolve the HCO-60. Ethanol was removed from the solution under reduced pressure by using a rotary evaporator. After this, a test solution was prepared by adding a suitable amount of a physiological saline solution with agitation.
Mice [dd-strain; weight 20±1 g; each group consisted of 5 mice] were used for this experiment. An individual test solution was administered to each mouse by intraperitoneal injection. The test solutions (each 0.5 ml) were prepared by stepwise dilution.

P-388 cells [8] = assay: Antitumor activity, P-388 leukemia intraperitoneally inoculated, compound i.p. (Example II); type: in vivo, CDF1 mice
Experimental: as §2
Seven-day-old leukemia cells obtained from the ascites of DBA/2 mice inoculated intraperitoneally with 10^6 P-388 cells were used. A cell suspension containing 5×10^6 cells per ml was prepared by using a sterilized physiological saline solution. The test mice (CDF1 mice, 20-25 g) were inoculated with 0.2 ml of the cell suspension containing 1×10^6 cells intraperitoneally. After 24 hours, the mice were divided into groups (each group consisting of 5 mice) and the test solutions were administered intraperitoneally once only. […] In order to evaluate the effects of the test samples, the average survival days were calculated 30 and 60 days after tumor implantation and compared with those of the control group (untreated group). Antitumor activities of the test compounds are indicated by ILS % (increase in life span%) on the basis of the control group.

P-388 cells [9] = assay: Antitumor effect, P-388 cells intravenously inoculated, compound i.v. (Example III); type: in vivo, Mice; details: 30 days
Experimental: as §2
Mice were inoculated intravenously with P-388 cells (10^6 /0.2 ml) in a similar manner to that described above in Example II. […] Untreated mice and mice administered with Tween 80 were used for control purpose.

Sarcoma 180 cells = assay: Effect on Sarcoma-180, tumor weight ratio (Example IV); type: in vivo, dd-strain mice; details: tumor weighed 7 days after inoculation
Experimental: as §2
(§3) Sarcoma 180 cells were inoculated intraperitoneally into dd-strain mice. After 7 days following tumor implantation, ascites tumor cells were obtained from the mice. The cells were washed and a tumor cell suspension containing 5×10^7 cells per ml was prepared with physiological saline solution. 0.1 ml of the thus-prepared suspension containing 5×10^6 cells was inoculated into the left inguinal region of each of the test mice (dd-strain; weight 19±1 g; divided into groups, each group consisting of 5 mice). After 24 hours following the inoculation, the test compounds were administered to the mice individually and intraperitoneally. After 4 days following the inoculation, the peripherical blood of the treated mice was obtained by the puncture of the orbital vein. The number of the leucocytes in the peripheral blood was measured by using Toa Microcell Counter CC-108 (a commercial product of Toa Medical Electronics Co., Ltd., Japan). In order to evaluate the antitumor effects, the tumor was removed 7 days after the inoculation and weighed. Its weight was compared with the average weight of the tumors of the control group (untreated) to give the weight ratios (T/C) shown in Table 5.

[10] = Number of leucocytes in peripheral blood of Sarcoma-180 bearing mice (Example IV); type: in vivo, dd-strain mice; details: 4 days after inoculation
Experimental: as §2, §3

Solubility in water = type: physicochemical
[11] = 5 mg/kg i.p. once, determined after 30 days
[12] = 5 mg/kg i.p. once, determined after 60 days
[13] = 10 mg/kg i.p. once, determined after 30 days
[14] = 10 mg/kg i.p. once, determined after 60 days
[15] = 20 mg/kg i.p. once, determined after 30 days
[16] = 20 mg/kg i.p. once, determined after 60 days
[17] = 30 mg/kg i.p. once, determined after 30 days
[18] = 30 mg/kg i.p. once, determined after 60 days

CO[C@@]12[C@H](COC(N)=O)C3=C(C(=O)C(C)=C(N)C3=O)N1C[C@@H]1N[C@@H]12 [II, mitomycin C]
minimum inhibitory concentration [1]: < 0.025
minimum inhibitory concentration [2]: < 0.025
minimum inhibitory concentration [3]: 1.563
minimum inhibitory concentration [4]: 0.049
antitumor activity [5]: interesting antitumor activity
toxicity [6]: relatively high toxicity

CO[C@@]12[C@H](COC(N)=O)C3=C(C(=O)C(C)=C(Nc4ccc(O)cc4)C3=O)N1C[C@@H]1N[C@@H]12 [Compound IV, 7-N-(p-hydroxyphenyl)-mitomycin C]
minimum inhibitory concentration [1]: 0.049
minimum inhibitory concentration [2]: 0.391
minimum inhibitory concentration [3]: 6.25
minimum inhibitory concentration [4]: 0.196
LD50 at 336 h [7]: 34 mg/kg
Average survival days (P-388 cells [8]; [11]): 20.4 ± 5.2 days
ILS % (increase in life span) (P-388 cells [8]; [11]): 108%
Number of survivors (P-388 cells [8]; [11]): 1/5
Average survival days (P-388 cells [8]; [12]): 20.4 ± 5.2 days
ILS % (increase in life span) (P-388 cells [8]; [12]): 108%
Number of survivors (P-388 cells [8]; [12]): 0/5
Average survival days (P-388 cells [8]; [13]): 23.0 ± 4.5 days
ILS % (increase in life span) (P-388 cells [8]; [13]): 135%
Number of survivors (P-388 cells [8]; [13]): 1/5
Average survival days (P-388 cells [8]; [14]): 23.4 ± 5.1 days
ILS % (increase in life span) (P-388 cells [8]; [14]): 136%
Number of survivors (P-388 cells [8]; [14]): 0/5
Average survival days (P-388 cells [8]; [15]): 28.4 ± 3.2 days
ILS % (increase in life span) (P-388 cells [8]; [15]): 190%
Number of survivors (P-388 cells [8]; [15]): 4/5
Average survival days (P-388 cells [8]; [16]): 47.6 ± 15.8 days
ILS % (increase in life span) (P-388 cells [8]; [16]): 386%
Number of survivors (P-388 cells [8]; [16]): 3/5
Average survival days (P-388 cells [8]; [17]): 15.4 ± 0.4 days
ILS % (increase in life span) (P-388 cells [8]; [17]): 57%
Number of survivors (P-388 cells [8]; [17]): 1/5
Average survival days (P-388 cells [8]; [18]): 21.4 ± 20.7 days
ILS % (increase in life span) (P-388 cells [8]; [18]): 118%
Number of survivors (P-388 cells [8]; [18]): 1/5
Average survival days (P-388 cells [9]; 5 mg/kg i.v. once): 11.4 ± 1.4 days
ILS % (P-388 cells [9]; 5 mg/kg i.v. once): 33%
Average survival days (P-388 cells [9]; 10 mg/kg i.v. once): 14.0 ± 0 days
ILS % (P-388 cells [9]; 10 mg/kg i.v. once): 63%
Average survival days (P-388 cells [9]; 15 mg/kg i.v. once): 16.6 ± 1.5 days
ILS % (P-388 cells [9]; 15 mg/kg i.v. once): 93%
Average survival days (P-388 cells [9]; 20 mg/kg i.v. once): 17.6 ± 4.1 days
ILS % (P-388 cells [9]; 20 mg/kg i.v. once): 105%
Average survival days (P-388 cells [9]; 30 mg/kg i.v. once): 7.6 ± 0.8 days
ILS % (P-388 cells [9]; 30 mg/kg i.v. once): -12%
T/C (tumor weight ratio) (Sarcoma 180 cells; 5 mg/kg i.p.): 0.83
T/C (tumor weight ratio) (Sarcoma 180 cells; 10 mg/kg i.p.): 0.66
T/C (tumor weight ratio) (Sarcoma 180 cells; 20 mg/kg i.p.): 0.46
T/C (tumor weight ratio) (Sarcoma 180 cells; 40 mg/kg i.p.): 0.27
Average number of leucocytes ([10]; 5 mg/kg i.p.): 63.2 ± 10.2 × 10^2 /mm^3
Average number of leucocytes ([10]; 10 mg/kg i.p.): 64.0 ± 24.6 × 10^2 /mm^3
Average number of leucocytes ([10]; 20 mg/kg i.p.): 39.0 ± 5.6 × 10^2 /mm^3
Average number of leucocytes ([10]; 40 mg/kg i.p.): 40.0 ± 15.3 × 10^2 /mm^3
solubility in water (Solubility in water): low solubility in water
